Results reported in US5628328A, “Method for measuring muscle mass” (priority 1995, dated 1997).
Like-named read-outs stand apart in the source and are kept apart here.

How the values were obtained:
[1] = design: species or system human; settings: in vivo
Experimental: Each study was four days in duration. Starting at t=0 (8.00 hours), subjects were administered a bolus infusion of L-3-[methyl^2 H3 ]-histidine (D3 -3-methylhistidine) at 0.13 μmol/kg into the forearm vein of the dominant arm. The infusate was passed through a Millex-GS sterilizing filter (0.22 μm; Millipore Products Divisions, Bedford, Mass.) before the infusion. Blood samples were obtained from the superficial hand vein and from the deep forearm vein at 0, 1, 2, 5, 10, 15, 30, 45, 90, 150, 210, 270, 330, and 720 min. postinjection. During this time, the subjects were required to stay at the Clinical Research Center, although they were allowed to ambulate freely within their rooms. Free access to food and drink was allowed after the 330-min sample. After 720 min, the catheters were removed and the patients were allowed to go home. For the following three days, the subjects returned to the CRC each morning before eating for further blood sampling by percutaneous venous puncture at 1,440, 2,880, and 4,320 min postinjection. Urine was collected over 24 hour periods the day before and for three days after tracer infusion.
Blood was collected in heparinized syringes, transferred to tubes containing Na2 EDTA (15 mg/tube), and centrifuged. The plasma obtained was immediately placed on ice. An aliquot of the plasma was processed for determination of 3-methylhistidine concentration as well as the L-3-[methyl-^2 H3 ]-histidine:3-methylhistidine isotope enrichment. The remainder of the plasma was frozen at -70° C. […] Urinary 3-methylhistidine concentration and production were also measured (Rathmacher, J. A. et al., "Gas chromatographic-mass spectrometric analysis of stable isotopes of 3-methylhistidine in biological fluids: application to plasma kinetics in vivo," Biol. Mass Spectrom. (1992) 21:560-566). […]

[2] = sheep, cited from earlier work
[3] = design: species or system dogs; settings: dog, in vivo
Description: Urinary 3-methylhistidine may be used in cattle and humans as an index of muscle protein breakdown but is invalid for use in pigs and lambs. […] Previously, in validating urinary 3-methylhistidineas an index of muscle proteolysis, researchers have injected ^14 C-3-methylhistidine intravenously and recovered the tracer in urine but have never described its decay in plasma. In constructing the 3-compartment model, we kept in mind known physiology of 3-methylhistidine. It has been established that there are pools of 3-methylhistidine in plasma, in other extracellular fluid pools, within muscle and in other tissues. The primary fate of 3-methylhistidine in humans, cattle and dogs is into urine (model exit from compartment 1), but in sheep and pigs there is a balenine pool in muscle that accumulates over time (model exit from compartment 3). The kinetic data were initially fitted to three exponential terms, indicating the possibility of a three compartment model. […] Model code 10 of SAAM was used and the models were based on a set of linear differential equations having constant coefficients. Based on comparison of fits, a 3-compartment model was the best model to describe the metabolism of 3-methylhistidine; however, 2- and 4-compartment models as well as other configurations were also evaluated. […]

[4] = Nishizawa et al.; cited from earlier work
[5] = cattle; cited from earlier work
[6] = dogs, cited from earlier work
[7] = cattle, cited from earlier work
[8] = cited from earlier work
[9] = design: species or system cattle; settings: bovine, in vivo
Description: For cattle, the same three-compartment model was used as described herein. With respect to sheep, the model differs from that shown in FIG. 1 in that de novo production of 3-methylhistidine is shown in compartment 2 and additionally, exit from compartment 3 occurs as well as from compartment 1 into urine. With respect to swine, again, de novo production of 3-methylhistidine is shown in compartment 2, and exit to urine is from compartment 3.
Urinary 3-methylhistidine may be used in cattle and humans as an index of muscle protein breakdown but is invalid for use in pigs and lambs. […] Previously, in validating urinary 3-methylhistidineas an index of muscle proteolysis, researchers have injected ^14 C-3-methylhistidine intravenously and recovered the tracer in urine but have never described its decay in plasma. In constructing the 3-compartment model, we kept in mind known physiology of 3-methylhistidine. It has been established that there are pools of 3-methylhistidine in plasma, in other extracellular fluid pools, within muscle and in other tissues. […] Based on comparison of fits, a 3-compartment model was the best model to describe the metabolism of 3-methylhistidine; however, 2- and 4-compartment models as well as other configurations were also evaluated. […]

With `Cn1cnc(C[C@H](N)C(=O)O)c1` [3-methylhistidine] as the compound, how does the “Model 3-methylhistidine production above urinary estimate” value [1] read?
Its value is 16%.

And the “Model 3-methylhistidine production versus urinary production” value [1]?
Its value is “qualitatively similar”.

What about the “Urinary 3-methylhistidine production versus model estimate” value [1] of the same compound?
The value was “lower than the model estimate”.

What about the “3-methylhistidine excreted in urine” value [2] of the same compound?
Its value is “approximately 15%”.

And the Urinary excretion ([2]; retained in muscle as balenine)?
The Urinary excretion was “not quantitatively excreted in urine”.

What about the “Model 3-methylhistidine production versus urinary production” value [3] of the same compound?
The value was “qualitatively similar”.

What about the “Contribution of skin and intestine to total body pool of 3-methylhistidine” value [4] of the same compound?
The value was “up to 10%”.

What about the Urinary excretion [5] of the same compound?
The Urinary excretion was “quantitatively excreted in the urine”.

And the “3MH Production” value ([6]; n=5, from model)?
The value was 12 µmol/kg/day.

What about the “M1, compartment mass” value ([6]; n=5) of the same compound?
The value was 3227 nmol/kg.

And the “M2, compartment mass” value ([6]; n=5)?
Its value is 7973 nmol/kg.

And the “M3, compartment mass” value ([6]; n=5)?
Its value is 9261 nmol/kg.

What about the “R01 mass transfer rate” value ([6]; n=5) of the same compound?
The value was 9 nmol/kg/min.

What about the “R12 mass transfer rate” value ([6]; n=5) of the same compound?
Its value is 329 nmol/kg/min.

What about the “R21 mass transfer rate” value ([6]; n=5) of the same compound?
The value was 319 nmol/kg/min.

What about the “R23 mass transfer rate” value ([6]; n=5) of the same compound?
The value was 56 nmol/kg/min.

And the “R32 mass transfer rate” value ([6]; n=5)?
The value was 56 nmol/kg/min.

What about the “L0,1 fractional transfer rate” value ([6]; number 5) of the same compound?
The value was “.02 min⁻¹”.

What about the “L1,2 fractional transfer rate” value ([6]; number 5) of the same compound?
Its value is “.06 min⁻¹”.

And the “L2,1 fractional transfer rate” value ([6]; number 5)?
Its value is “.11 min⁻¹”.

What about the “L2,3 fractional transfer rate” value ([6]; number 5) of the same compound?
Its value is “.008 min⁻¹”.

And the “L3,2 fractional transfer rate” value ([6]; number 5)?
Its value is “.006 min⁻¹”.

And the “Urinary 3MH loss” value ([6]; number 5)?
Its value is 100 % of total.

And the “L2,1 fractional transfer rate” value ([7]; comparison)?
Its value is 0.18 min⁻¹.

And the “3MH Production” value ([7]; n=36, from model)?
The value was 6.2 µmol/kg/day.

And the “M1, compartment mass” value ([7]; n=36)?
Its value is 806 nmol/kg.

And the “M2, compartment mass” value ([7]; n=36)?
The value was 2106 nmol/kg.

What about the “M3, compartment mass” value ([7]; n=36) of the same compound?
The value was 7803 nmol/kg.

And the “R01 mass transfer rate” value ([7]; n=36)?
The value was 4.2 nmol/kg/min.

And the “R12 mass transfer rate” value ([7]; n=36)?
The value was 107 nmol/kg/min.

What about the “R21 mass transfer rate” value ([7]; n=36) of the same compound?
The value was 103 nmol/kg/min.

And the “R23 mass transfer rate” value ([7]; n=36)?
Its value is 9.6 nmol/kg/min.

What about the “R32 mass transfer rate” value ([7]; n=36) of the same compound?
The value was 5.4 nmol/kg/min.

What about the “L0,1 fractional transfer rate” value ([7]; number 39) of the same compound?
Its value is “.006 min⁻¹”.

And the “L1,2 fractional transfer rate” value ([7]; number 39)?
Its value is “.06 min⁻¹”.

What about the “L2,1 fractional transfer rate” value ([7]; number 39) of the same compound?
The value was “.18 min⁻¹”.

What about the “L2,3 fractional transfer rate” value ([7]; number 39) of the same compound?
The value was “.002 min⁻¹”.

And the “L3,2 fractional transfer rate” value ([7]; number 39)?
Its value is “.003 min⁻¹”.

And the “Urinary 3MH loss” value ([7]; number 39)?
Its value is 100 % of total.

And the “3-methylhistidine excretion during exercise” value ([8]; humans)?
The value was “insignificant increase”.

What about the “3-methylhistidine excretion during recovery from exercise” value ([8]; humans) of the same compound?
Its value is “significant increase”.

What about the Urinary excretion ([8]; man) of the same compound?
The Urinary excretion was “quantitatively excreted in the urine”.

What about the “Model 3-methylhistidine production versus urinary production” value [9] of the same compound?
The value was “qualitatively similar”.
